In patent US10266548B2, “Substituted benzylindazoles for use as Bub1 kinase inhibitors in the treatment of hyperproliferative diseases” (Bayer Intellectual Property GmbH, priority 2011, dated 2019):
Read-outs that look alike come from different tables or passages of the source.

Legend:
MCF7 cells = test: Proliferation assay (MCF7 cell line); type: cell-based; settings: Homo sapiens, 96 h; MCF7, 4 days, crystal violet; read-out: Biological Assay 2: Proliferation assay (MCF7 cell line) median IC50
Description: Cultivated tumor cells (cells were ordered from ATCC, except HeLa-MaTu and HeLa-MaTu-ADR, which were ordered from EPO-GmbH, Berlin) were plated at a density of 1000 to 5000 cells/well, depending on the growth rate of the respective cell line, in a 96-well multititer plate in 200 μL of their respective growth medium supplemented 10% fetal calf serum. After 24 hours, the cells of one plate (zero-point plate) were stained with crystal violet (see below), while the medium of the other plates was replaced by fresh culture medium (200 μl), to which the test substances were added in various concentrations (0 μM, as well as in the range of 0.001-10 μM; the final concentration of the solvent dimethyl sulfoxide was 0.5%). The cells were incubated for 4 days in the presence of test substances. Cell proliferation was determined by staining the cells with crystal violet: the cells were fixed by adding 20 μl/measuring point of an 11% glutaric aldehyde solution for 15 minutes at room temperature. […] Absorbtion was determined by photometry at a wavelength of 595 nm. The change of cell number, in percent, was calculated by normalization of the measured values to the aborbtion values of the zero-point plate (=0%) and the absorbtion of the untreated (0 μm) cells (=100%). The IC50 values were determined by means of a 4 parameter fit using the company's own software.

[1] = biological target: catalytic domain of human Bub1 (amino acids 704-1085) (Homo sapiens (Human), UniProt O43683); test: Bub1 kinase assay (TR-FRET); type: biochemical; settings: 10 μM ATP, 1 μM peptide substrate; read-out: Biological Assay 1: Bub1 kinase assay median IC50
Sequence of catalytic domain of human Bub1 (amino acids 704-1085) (O43683 704-1085): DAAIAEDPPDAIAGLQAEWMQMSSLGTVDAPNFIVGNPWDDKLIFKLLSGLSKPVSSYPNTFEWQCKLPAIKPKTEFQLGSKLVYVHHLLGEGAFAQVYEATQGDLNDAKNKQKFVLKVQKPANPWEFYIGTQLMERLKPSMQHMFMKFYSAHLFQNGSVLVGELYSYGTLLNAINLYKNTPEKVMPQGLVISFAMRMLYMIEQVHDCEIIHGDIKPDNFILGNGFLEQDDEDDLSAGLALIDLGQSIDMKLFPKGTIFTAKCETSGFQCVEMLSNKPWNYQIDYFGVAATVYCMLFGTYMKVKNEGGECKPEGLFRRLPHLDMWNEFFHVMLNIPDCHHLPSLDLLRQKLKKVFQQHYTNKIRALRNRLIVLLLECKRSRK
Outline: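 Phosphoserine product detected by TR-FRET (Eu-labeled anti-mouse IgG/anti-phosphoserine antibody to streptavidin-XL665) after 1 h at 22 °C. IC50 from 4-parameter logistic fit.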

HeLa cells = test: Proliferation assay (HeLa cell line); type: cell-based; settings: read-out: Biological Assay 2: Proliferation assay (HeLa cell line) median IC50
NCI-H460 cells = test: Proliferation assay (H460 cell line); type: cell-based; settings: Homo sapiens, NCI-H460, 96 h, read-out: Biological Assay 2: Proliferation assay (H460 cell line) median IC50
Description: (§1) Cultivated tumor cells (cells were ordered from ATCC, except HeLa-MaTu and HeLa-MaTu-ADR, which were ordered from EPO-GmbH, Berlin) were plated at a density of 1000 to 5000 cells/well, depending on the growth rate of the respective cell line, in a 96-well multititer plate in 200 μL of their respective growth medium supplemented 10% fetal calf serum. After 24 hours, the cells of one plate (zero-point plate) were stained with crystal violet (see below), while the medium of the other plates was replaced by fresh culture medium (200 μl), to which the test substances were added in various concentrations (0 μM, as well as in the range of 0.001-10 μM; the final concentration of the solvent dimethyl sulfoxide was 0.5%). The cells were incubated for 4 days in the presence of test substances. Cell proliferation was determined by staining the cells with crystal violet: the cells were fixed by adding 20 μl/measuring point of an 11% glutaric aldehyde solution for 15 minutes at room temperature. After three washing cycles of the fixed cells with water, the plates were dried at room temperature. The cells were stained by adding 100 μl/measuring point of a 0.1% crystal violet solution (pH 3.0). After three washing cycles of the stained cells with water, the plates were dried at room temperature. The dye was dissolved by adding 100 μl/measuring point of a 10% acetic acid solution. […] The change of cell number, in percent, was calculated by normalization of the measured values to the aborbtion values of the zero-point plate (=0%) and the absorbtion of the untreated (0 μm) cells (=100%). The IC50 values were determined by means of a 4 parameter fit using the company's own software.

DU145 cells = test: Proliferation assay (DU145 cell line); type: cell-based; settings: Homo sapiens, DU-145, 96 h, read-out: Biological Assay 2: Proliferation assay (DU145 cell line) median IC50
Description: as §1

B16F10 cells = test: Proliferation assay (B16F10 cell line); type: cell-based; settings: Mus musculus, B16-F10, 96 h, read-out: Biological Assay 2: Proliferation assay (B16F10 cell line) median IC50
Description: as §1

Caco2 cells = test: Proliferation assay (Caco2 cell line); type: cell-based; settings: Homo sapiens, Caco-2, 96 h, read-out: Biological Assay 2: Proliferation assay (Caco2 cell line) median IC50
Description: as §1

HeLa-MaTu-ADR cells = test: Proliferation assay (HeLa-MaTu-ADR cell line); type: cell-based; settings: 96 h, read-out: Biological Assay 2: Proliferation assay (HeLa-MaTu-ADR cell line) median IC50
Description: as §1

[2] = HeLa-MaTu-ADR, 4 days, crystal violet
[3] = Homo sapiens, 96 h, 4 days, crystal violet

SMILES | IC50 (MCF7 cells) [µM] | IC50 [1] [µM] | IC50 (HeLa cells; 4 days, crystal violet) [µM] | IC50 (NCI-H460 cells; H460, 4 days, crystal violet) [µM] | IC50 (DU145 cells; DU145, 4 days, crystal violet) [µM] | IC50 (B16F10 cells; B16F10, 4 days, crystal violet) [µM] | IC50 (Caco2 cells; Caco2, 4 days, crystal violet) [µM] | IC50 (HeLa-MaTu-ADR cells; [2]) [µM] | IC50 (HeLa cells; [3]) [µM] | IC50 (HeLa cells; Homo sapiens, 96 h) [µM] | IC50 (NCI-H460 cells) [µM] | IC50 (DU145 cells) [µM] | IC50 (B16F10 cells) [µM] | IC50 (Caco2 cells) [µM] | IC50 (HeLa-MaTu-ADR cells) [µM]
CCOc1cc(F)c(Cn2nc(-c3ncc(OC)c(Nc4ccncc4)n3)c3ccccc32)c(F)c1 [Example 2-5-1, 2-[1-(4-ethoxy-2,6-difluorobenzyl)-1H-indazol-3-yl]-5-methoxy-N-(pyridin-4-yl)pyrimidin-4-amine] | 3.1 | 0.0046 | 2.1 | 1.4 | 1.7 | 1.1 | 1.2 | 1.2 |  |  |  |  |  |  | 
COc1cnc(-c2nn(Cc3c(Cl)ccc(C(F)(F)F)c3Cl)c3ccccc23)nc1Nc1ccncc1 [Example 2-34-1, 2-{1-(2,6-dichloro-3-(trifluoromethyl)benzyl]-1H-indazol-3-yl}-5-methoxy-N-(pyridin-4-yl)pyrimidin-4-amine] |  | 0.038 |  | 6.6 | 2.6 | 1.2 | 3.4 | 1.2 | 1.6 |  |  |  |  |  | 
COC(=O)c1ccc(Cl)c(Cn2nc(-c3ncc(OC)c(Nc4ccncc4)n3)c3ccccc32)c1Cl [Example 2-16-1, methyl 2,4-dichloro-3-({3-[5-methoxy-4-(pyridin-4-ylamino)pyrimidin-2-yl]-1H-indazol-1-yl}methyl)benzoate] | 2 | 0.0084 |  | 2.9 | 2 | 0.99 | 2.6 | 1.2 | 1.6 |  |  |  |  |  | 
CCOc1cc(F)c(Cn2nc(-c3ncc(OC[C@@H]4CCC(=O)N4)c(Nc4ccncc4)n3)c3ccccc32)c(F)c1 [Example 4-22, (5S)-5-[({2-[1-(4-ethoxy-2,6-difluorobenzyl)-1H-indazol-3-yl]-4-(pyridin-4-ylamino)pyrimidin-5-yl}oxy)methyl] pyrrolidin-2-one] |  | 0.0058 |  |  |  |  |  |  |  | 1.9 | 2.1 | 3.6 | 1.2 | 9.5 | 10
COc1cnc(-c2nn(Cc3c(Cl)cc(OC(F)(F)F)cc3Cl)c3ccccc23)nc1Nc1ccncc1 [Example 2-26-1, 2-{1-[2,6-dichloro-4-(trifluoromethoxy)benzyl]-1H-indazol-3-yl}-5-methoxy-N-(pyridin-4-yl)pyrimidin-4-amine] |  | 0.016 |  |  |  |  |  |  |  | 0.56 | 1 | 0.53 | 0.42 | 0.38 | 0.39
COc1cnc(-c2nn(Cc3c(F)ccc(OC)c3F)c3ccccc23)nc1Nc1ccncc1 [Example 2-4-1, 2-[1-(2,6-difluoro-3-methoxybenzyl)-1H-indazol-3-yl]-5-methoxy-N-(pyridin-4-yl)pyrimidin-4-amine] |  | 0.0045 |  | 4.2 | 3.3 | 1.2 | 1.4 | 1.3 | 3.5 |  |  |  |  |  | 
COc1cnc(-c2nn(Cc3ccc4c(C)cc(=O)oc4c3)c3ccccc23)nc1Nc1ccncc1 [Example 2-32-1, 7-({3-[5-methoxy-4-(pyridin-4-ylamino)pyrimidin-2-yl]-1H-indazol-1-yl}methyl)-4-methyl-2H-chromen-2-one] |  | 0.029 |  | 8.5 | 5.3 | 1.3 | 2.4 | 2.3 | 4.2 |  |  |  |  |  | 
